Tests used:
[1] = DRUGMATRIX: Sigma2 radioligand binding (ligand: [3H] Ifenprodil); assay type: cell membranes, Rattus norvegicus, Wistar, Brain, Membrane; conditions: Not Active = under 50% inhibition at 10 µM
Insulin receptor = Insulin receptor (Rattus norvegicus, UniProt P15127); assay type: cell membranes, Wistar, Liver, Membrane; further: in other assays of this panel Not Active means under 50% inhibition at 10 µM
[2] = target: T1, Neuropeptide Y receptor type 1 (Homo sapiens, UniProt P25929); assay type: cell membranes, Membrane; conditions: sk-n-mc; further: in other assays of this panel Not Active means under 50% inhibition at 10 µM
T1 sequence (P25929 whole entry): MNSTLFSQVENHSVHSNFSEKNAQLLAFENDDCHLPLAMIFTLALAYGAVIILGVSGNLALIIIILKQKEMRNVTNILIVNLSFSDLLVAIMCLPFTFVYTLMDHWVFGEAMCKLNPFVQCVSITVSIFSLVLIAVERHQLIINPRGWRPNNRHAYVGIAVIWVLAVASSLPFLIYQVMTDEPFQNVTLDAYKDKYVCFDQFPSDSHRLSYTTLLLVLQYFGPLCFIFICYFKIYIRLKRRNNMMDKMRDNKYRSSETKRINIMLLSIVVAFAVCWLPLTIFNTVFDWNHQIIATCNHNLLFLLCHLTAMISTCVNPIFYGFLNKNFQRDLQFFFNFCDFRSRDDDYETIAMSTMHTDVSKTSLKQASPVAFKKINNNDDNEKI

[3] = target: Platelet-activating factor receptor (Homo sapiens, UniProt P25105); assay type: tissue-based; further: in other assays of this panel Not Active means under 50% inhibition at 10 µM
Platelet-activating factor receptor, sequence (P25105 whole entry): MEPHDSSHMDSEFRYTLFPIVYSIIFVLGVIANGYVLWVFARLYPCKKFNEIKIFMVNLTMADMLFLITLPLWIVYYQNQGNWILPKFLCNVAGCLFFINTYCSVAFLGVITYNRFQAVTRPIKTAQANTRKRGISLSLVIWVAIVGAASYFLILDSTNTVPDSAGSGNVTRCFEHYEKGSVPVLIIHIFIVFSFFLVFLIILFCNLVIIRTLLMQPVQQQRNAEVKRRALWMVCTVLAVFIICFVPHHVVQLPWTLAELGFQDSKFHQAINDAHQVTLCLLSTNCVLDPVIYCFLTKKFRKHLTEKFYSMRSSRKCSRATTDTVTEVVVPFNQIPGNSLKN

Caspase-1 = target: T2, Caspase-1 (Homo sapiens, UniProt P29466); design: species or system Escherichia coli;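 further: Caspase-1 enzyme inhibition assay with a peptide substrate; in other assays of this panel Not Active means under 50% inhibition at 10 µM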
T2 sequence (P29466 whole entry): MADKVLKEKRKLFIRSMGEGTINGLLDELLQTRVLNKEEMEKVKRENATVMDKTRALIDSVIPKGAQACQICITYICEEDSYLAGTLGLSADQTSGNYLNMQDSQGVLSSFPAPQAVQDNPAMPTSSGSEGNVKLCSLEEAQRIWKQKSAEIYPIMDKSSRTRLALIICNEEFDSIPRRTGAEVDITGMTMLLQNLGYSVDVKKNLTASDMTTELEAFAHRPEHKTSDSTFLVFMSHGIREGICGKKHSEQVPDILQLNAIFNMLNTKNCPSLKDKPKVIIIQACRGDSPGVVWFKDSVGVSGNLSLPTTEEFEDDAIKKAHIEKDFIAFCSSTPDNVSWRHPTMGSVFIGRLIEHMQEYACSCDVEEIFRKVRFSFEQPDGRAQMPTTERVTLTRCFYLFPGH

[4] = target: Epidermal growth factor receptor (Homo sapiens, UniProt P00533); experiment: DRUGMATRIX: Protein Tyrosine Kinase, EGF Receptor enzyme inhibition (substrate: Poly(Glu:Tyr)); assay type: cell-based, Insect cells; conditions: insect cells; Not Active = under 50% inhibition at 10 µM
Epidermal growth factor receptor, sequence (P00533 whole entry): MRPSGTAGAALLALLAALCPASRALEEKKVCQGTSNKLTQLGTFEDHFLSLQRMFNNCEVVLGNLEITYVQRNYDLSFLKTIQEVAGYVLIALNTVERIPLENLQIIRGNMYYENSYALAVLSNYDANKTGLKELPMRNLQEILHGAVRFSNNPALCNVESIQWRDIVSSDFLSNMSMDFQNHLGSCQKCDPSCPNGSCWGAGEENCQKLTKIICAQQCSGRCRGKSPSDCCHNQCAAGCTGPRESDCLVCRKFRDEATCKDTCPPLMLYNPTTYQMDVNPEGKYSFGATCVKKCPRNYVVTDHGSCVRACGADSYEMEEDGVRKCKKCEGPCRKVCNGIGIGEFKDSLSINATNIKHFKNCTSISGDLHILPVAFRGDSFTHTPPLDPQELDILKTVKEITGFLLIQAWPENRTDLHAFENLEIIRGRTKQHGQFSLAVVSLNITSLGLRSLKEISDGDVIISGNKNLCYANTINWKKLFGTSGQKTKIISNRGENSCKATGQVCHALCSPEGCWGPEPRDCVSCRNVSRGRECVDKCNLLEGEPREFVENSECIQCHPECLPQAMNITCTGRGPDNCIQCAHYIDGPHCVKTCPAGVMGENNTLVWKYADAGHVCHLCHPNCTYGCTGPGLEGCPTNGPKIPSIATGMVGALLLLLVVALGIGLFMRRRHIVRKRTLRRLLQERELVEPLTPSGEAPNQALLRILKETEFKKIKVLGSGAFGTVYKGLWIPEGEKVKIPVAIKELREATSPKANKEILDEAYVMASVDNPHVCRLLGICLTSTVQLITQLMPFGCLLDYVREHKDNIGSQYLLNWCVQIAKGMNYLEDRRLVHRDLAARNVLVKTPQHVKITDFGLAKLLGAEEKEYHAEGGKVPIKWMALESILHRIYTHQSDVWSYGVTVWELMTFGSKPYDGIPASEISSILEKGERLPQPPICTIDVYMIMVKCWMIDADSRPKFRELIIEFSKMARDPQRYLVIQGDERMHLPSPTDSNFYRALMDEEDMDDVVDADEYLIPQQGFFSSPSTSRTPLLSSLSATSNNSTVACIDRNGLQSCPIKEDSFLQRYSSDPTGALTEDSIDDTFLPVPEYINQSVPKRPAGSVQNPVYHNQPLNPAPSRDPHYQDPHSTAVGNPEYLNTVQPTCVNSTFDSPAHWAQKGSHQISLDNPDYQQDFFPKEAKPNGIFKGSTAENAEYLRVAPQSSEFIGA

[5] = target: Receptor tyrosine-protein kinase erbB-2 (Homo sapiens, UniProt P04626); experiment: biochemical; assay type: cell-based, Insect cells; conditions: insect cells
[6] = target: Voltage-gated inwardly rectifying potassium channel KCNH2 (Homo sapiens, UniProt Q12809); conditions: hek293; further: in other assays of this panel Not Active means under 50% inhibition at 10 µM
Voltage-gated inwardly rectifying potassium channel KCNH2, sequence (Q12809 whole entry): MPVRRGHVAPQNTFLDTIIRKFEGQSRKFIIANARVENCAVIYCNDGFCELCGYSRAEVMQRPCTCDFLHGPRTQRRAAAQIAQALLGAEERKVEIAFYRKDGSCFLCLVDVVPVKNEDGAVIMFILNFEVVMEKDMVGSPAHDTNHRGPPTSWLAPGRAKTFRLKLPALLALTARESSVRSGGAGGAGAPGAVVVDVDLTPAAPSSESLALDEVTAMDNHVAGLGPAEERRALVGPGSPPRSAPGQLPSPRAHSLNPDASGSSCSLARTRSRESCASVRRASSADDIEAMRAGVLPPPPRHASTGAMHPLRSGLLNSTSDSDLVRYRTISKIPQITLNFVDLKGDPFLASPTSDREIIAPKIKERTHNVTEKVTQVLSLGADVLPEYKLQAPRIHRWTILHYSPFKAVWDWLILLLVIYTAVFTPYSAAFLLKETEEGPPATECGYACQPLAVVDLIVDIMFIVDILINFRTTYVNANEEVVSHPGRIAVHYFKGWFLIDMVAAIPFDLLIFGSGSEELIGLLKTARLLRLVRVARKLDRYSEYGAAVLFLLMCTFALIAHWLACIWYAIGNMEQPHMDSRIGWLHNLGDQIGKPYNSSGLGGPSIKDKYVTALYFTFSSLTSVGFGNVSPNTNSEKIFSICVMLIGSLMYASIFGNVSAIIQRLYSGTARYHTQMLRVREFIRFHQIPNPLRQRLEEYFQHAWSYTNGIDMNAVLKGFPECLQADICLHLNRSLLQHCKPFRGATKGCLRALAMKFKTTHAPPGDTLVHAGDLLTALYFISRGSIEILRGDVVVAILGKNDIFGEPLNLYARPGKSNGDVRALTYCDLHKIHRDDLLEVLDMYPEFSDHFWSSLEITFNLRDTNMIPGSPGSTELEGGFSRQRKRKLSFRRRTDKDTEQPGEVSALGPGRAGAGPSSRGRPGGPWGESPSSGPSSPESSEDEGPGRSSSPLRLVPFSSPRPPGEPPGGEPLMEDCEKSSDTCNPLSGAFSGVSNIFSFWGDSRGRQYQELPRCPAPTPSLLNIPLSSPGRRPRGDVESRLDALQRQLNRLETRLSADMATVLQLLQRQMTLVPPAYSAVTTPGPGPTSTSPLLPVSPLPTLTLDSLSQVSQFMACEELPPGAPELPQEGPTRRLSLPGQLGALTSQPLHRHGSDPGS

Insulin receptor, sequence (P15127 27-759 limits assumed): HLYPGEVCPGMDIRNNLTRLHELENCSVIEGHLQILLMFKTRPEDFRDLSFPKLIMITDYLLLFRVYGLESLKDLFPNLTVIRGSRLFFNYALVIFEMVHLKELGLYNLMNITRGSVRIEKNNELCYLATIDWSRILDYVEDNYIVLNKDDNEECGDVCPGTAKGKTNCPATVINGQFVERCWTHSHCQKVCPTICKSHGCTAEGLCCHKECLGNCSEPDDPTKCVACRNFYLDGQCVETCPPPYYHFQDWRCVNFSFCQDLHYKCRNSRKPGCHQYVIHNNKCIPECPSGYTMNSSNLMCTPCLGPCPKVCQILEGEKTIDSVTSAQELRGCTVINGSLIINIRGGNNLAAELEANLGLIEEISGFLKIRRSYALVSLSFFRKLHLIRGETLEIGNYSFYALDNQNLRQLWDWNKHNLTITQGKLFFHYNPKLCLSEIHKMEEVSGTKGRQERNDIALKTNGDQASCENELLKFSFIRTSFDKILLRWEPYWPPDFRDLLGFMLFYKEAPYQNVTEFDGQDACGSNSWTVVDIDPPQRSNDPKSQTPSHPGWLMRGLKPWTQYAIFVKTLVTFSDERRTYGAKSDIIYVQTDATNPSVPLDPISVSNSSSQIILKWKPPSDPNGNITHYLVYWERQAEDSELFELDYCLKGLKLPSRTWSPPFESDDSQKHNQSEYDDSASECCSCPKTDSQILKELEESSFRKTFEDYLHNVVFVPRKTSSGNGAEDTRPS
Insulin receptor, sequence (P15127 764-1383 limits assumed): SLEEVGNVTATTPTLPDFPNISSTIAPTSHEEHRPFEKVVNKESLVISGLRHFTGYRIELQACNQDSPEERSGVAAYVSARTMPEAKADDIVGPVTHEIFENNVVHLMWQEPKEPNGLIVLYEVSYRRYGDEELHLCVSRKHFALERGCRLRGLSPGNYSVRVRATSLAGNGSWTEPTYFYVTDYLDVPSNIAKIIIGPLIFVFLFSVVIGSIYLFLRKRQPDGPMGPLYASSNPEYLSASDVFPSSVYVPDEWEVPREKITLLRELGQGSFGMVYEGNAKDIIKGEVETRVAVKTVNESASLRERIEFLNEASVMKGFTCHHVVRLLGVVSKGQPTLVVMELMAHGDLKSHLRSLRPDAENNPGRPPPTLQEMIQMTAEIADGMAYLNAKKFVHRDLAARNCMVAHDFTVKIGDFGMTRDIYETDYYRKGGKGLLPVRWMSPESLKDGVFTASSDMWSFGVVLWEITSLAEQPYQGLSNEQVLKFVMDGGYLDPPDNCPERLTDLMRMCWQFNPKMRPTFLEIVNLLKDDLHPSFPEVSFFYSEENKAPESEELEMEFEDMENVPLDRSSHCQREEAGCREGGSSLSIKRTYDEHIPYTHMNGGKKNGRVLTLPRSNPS

Brc1c(NC2=NCCN2)ccc2nccnc12 [BRIMONIDINE]
IC50 [1]: Not Active
Ki [1]: Not Active
IC50 (Insulin receptor): Not Active
IC50 [2]: Not Active
IC50 [3]: Not Active
IC50 (Caspase-1): Not Active
IC50 [4]: Not Active
IC50 [5]: Not Active
IC50 [6]: Not Active
Ki [6]: Not Active

CN(C)[C@@H]1C(O)=C(C(N)=O)C(=O)[C@@]2(O)C(O)=C3C(=O)c4c(O)ccc(Cl)c4[C@@](C)(O)[C@H]3C[C@@H]12 [CHLORTETRACYCLINE]
IC50 [1]: Not Active
Ki [1]: Not Active
IC50 (Insulin receptor): Not Active
IC50 [2]: Not Active
IC50 [3]: Not Active
IC50 (Caspase-1): Not Active
IC50 [4]: Not Active
IC50 [5]: Not Active
IC50 [6]: Not Active
Ki [6]: Not Active

CN/C(=N\CCSCc1nc[nH]c1C)NC#N [CIMETIDINE]
IC50 [1]: Not Active
Ki [1]: Not Active
IC50 (Insulin receptor): Not Active
IC50 [2]: Not Active
IC50 [3]: Not Active
IC50 (Caspase-1): Not Active
IC50 [4]: Not Active
IC50 [5]: Not Active
IC50 [6]: Not Active
Ki [6]: Not Active

CCC(=O)O[C@]1(C(=O)CCl)[C@@H](C)C[C@H]2[C@@H]3CCC4=CC(=O)C=C[C@]4(C)[C@@]3(F)[C@@H](O)C[C@@]21C [CLOBETASOL PROPIONATE]
IC50 [1]: Not Active
Ki [1]: Not Active
IC50 (Insulin receptor): Not Active
IC50 [2]: Not Active
IC50 [3]: Not Active
IC50 (Caspase-1): Not Active
IC50 [4]: Not Active
IC50 [5]: Not Active
IC50 [6]: Not Active
Ki [6]: Not Active

O=C1CN=C(c2ccccc2Cl)c2cc([N+](=O)[O-])ccc2N1 [CLONAZEPAM]
IC50 [1]: Not Active
Ki [1]: Not Active
IC50 (Insulin receptor): Not Active
IC50 [2]: Not Active
IC50 [3]: Not Active
IC50 (Caspase-1): Not Active
IC50 [4]: Not Active
IC50 [5]: Not Active
IC50 [6]: Not Active
Ki [6]: Not Active

Nc1ccn([C@@H]2O[C@H](CO)[C@@H](O)[C@@H]2O)c(=O)n1 [CYTARABINE]
IC50 [1]: Not Active
Ki [1]: Not Active
IC50 (Insulin receptor): Not Active
IC50 [2]: Not Active
IC50 [3]: Not Active
IC50 (Caspase-1): Not Active
IC50 [4]: Not Active
IC50 [5]: Not Active
IC50 [6]: Not Active
Ki [6]: Not Active

C[C@@H]1C[C@H]2[C@@H]3CCC4=CC(=O)C=C[C@]4(C)[C@@]3(F)[C@@H](O)C[C@]2(C)[C@H]1C(=O)CO [DESOXIMETASONE]
IC50 [1]: Not Active
Ki [1]: Not Active
IC50 (Insulin receptor): Not Active
IC50 [2]: Not Active
IC50 [3]: Not Active
IC50 (Caspase-1): Not Active
IC50 [4]: Not Active
IC50 [5]: Not Active
IC50 [6]: Not Active
Ki [6]: Not Active

C[C@@H]1C[C@H]2[C@@H]3CCC4=CC(=O)C=C[C@]4(C)[C@@]3(F)[C@@H](O)C[C@]2(C)[C@@]1(O)C(=O)CO [DEXAMETHASONE]
IC50 [1]: Not Active
Ki [1]: Not Active
IC50 (Insulin receptor): Not Active
IC50 [2]: Not Active
IC50 [3]: Not Active
IC50 (Caspase-1): Not Active
IC50 [4]: Not Active
IC50 [5]: Not Active
IC50 [6]: Not Active
Ki [6]: Not Active

CN(C)CC[C@@H](c1ccc(Cl)cc1)c1ccccn1 [DEXCHLORPHENIRAMINE]
IC50 ([1]; read-out: IC50): 19.1 µM
Ki ([1]; read-out: Ki): 11.7 µM
IC50 (Insulin receptor): Not Active
IC50 [2]: Not Active
IC50 [3]: Not Active
IC50 (Caspase-1): Not Active
IC50 [4]: Not Active
IC50 [5]: Not Active
IC50 [6]: Not Active
Ki [6]: Not Active

C[C@@H]1CC[C@@]2(OC1)O[C@H]1[C@@H](O)[C@H]3[C@@H]4CC[C@H]5C[C@@H](O[C@@H]6O[C@H](CO)[C@H](O[C@@H]7O[C@H](CO)C(O)[C@H](O[C@@H]8OC[C@@H](O)[C@H](O)[C@H]8O)[C@H]7O[C@@H]7O[C@H](CO)[C@H](O)[C@H](O[C@@H]8O[C@H](CO)[C@@H](O)[C@H](O)[C@H]8O)[C@H]7O)[C@H](O)[C@H]6O)[C@H](O)C[C@]5(C)[C@H]4CC[C@]3(C)[C@H]1[C@@H]2C (stereo not given in full) [DIGITONIN]
IC50 [1]: Not Active
Ki [1]: Not Active
IC50 (Insulin receptor): Not Active
IC50 [2]: Not Active
IC50 [3]: Not Active
IC50 (Caspase-1): Not Active
IC50 [4]: Not Active
IC50 [5]: Not Active
IC50 [6]: Not Active
Ki [6]: Not Active

OC(CCCN1CCCCC1)(c1ccccc1)c1ccccc1 [DIPHENIDOL]
IC50 [1]: Not Active
Ki [1]: Not Active
IC50 (Insulin receptor): Not Active
IC50 [2]: Not Active
IC50 [3]: Not Active
IC50 (Caspase-1): Not Active
IC50 [4]: Not Active
IC50 [5]: Not Active
IC50 [6]: Not Active
Ki [6]: Not Active

C[C@H]1O[C@@H](n2cc(F)c(=O)[nH]c2=O)[C@H](O)[C@@H]1O [DOXIFLURIDINE]
IC50 [1]: Not Active
Ki [1]: Not Active
IC50 (Insulin receptor): Not Active
IC50 [2]: Not Active
IC50 [3]: Not Active
IC50 (Caspase-1): Not Active
IC50 [4]: Not Active
IC50 [5]: Not Active
IC50 [6]: Not Active
Ki [6]: Not Active

Cn1c(=O)c2c(ncn2CC(O)CO)n(C)c1=O (stereo not given) [DYPHYLLINE]
IC50 [1]: Not Active
Ki [1]: Not Active
IC50 (Insulin receptor): Not Active
IC50 [2]: Not Active
IC50 [3]: Not Active
IC50 (Caspase-1): Not Active
IC50 [4]: Not Active
IC50 [5]: Not Active
IC50 [6]: Not Active
Ki [6]: Not Active

C[C@@H](CO)NC(=O)[C@@H]1C=C2c3cccc4[nH]cc(c34)C[C@H]2N(C)C1 [ERGONOVINE]
IC50 [1]: Not Active
Ki [1]: Not Active
IC50 (Insulin receptor): Not Active
IC50 [2]: Not Active
IC50 [3]: Not Active
IC50 (Caspase-1): Not Active
IC50 [4]: Not Active
IC50 [5]: Not Active
IC50 [6]: Not Active
Ki [6]: Not Active

COC(=O)CCc1ccc(OCC(O)CNC(C)C)cc1 (stereo not given) [ESMOLOL]
IC50 [1]: Not Active
Ki [1]: Not Active
IC50 (Insulin receptor): Not Active
IC50 [2]: Not Active
IC50 [3]: Not Active
IC50 (Caspase-1): Not Active
IC50 [4]: Not Active
IC50 [5]: Not Active
IC50 [6]: Not Active
Ki [6]: Not Active

CCC1(C)CC(=O)NC1=O (stereo not given) [ETHOSUXIMIDE]
IC50 [1]: Not Active
Ki [1]: Not Active
IC50 (Insulin receptor): Not Active
IC50 [2]: Not Active
IC50 [3]: Not Active
IC50 (Caspase-1): Not Active
IC50 [4]: Not Active
IC50 [5]: Not Active
IC50 [6]: Not Active
Ki [6]: Not Active

C#C[C@]1(OC(C)=O)CC[C@H]2[C@@H]3CCC4=C[C@@H](OC(C)=O)CC[C@@H]4[C@H]3CC[C@@]21C [ETHYNODIOL DIACETATE]
IC50 [1]: Not Active
Ki [1]: Not Active
IC50 (Insulin receptor): Not Active
IC50 [2]: Not Active
IC50 [3]: Not Active
IC50 (Caspase-1): Not Active
IC50 [4]: Not Active
IC50 [5]: Not Active
IC50 [6]: Not Active
Ki [6]: Not Active

COc1cc([C@@H]2c3cc4c(cc3[C@@H](O[C@@H]3O[C@@H]5CO[C@@H](C)O[C@H]5[C@H](O)[C@H]3O)[C@H]3COC(=O)[C@H]23)OCO4)cc(OC)c1O [ETOPOSIDE]
IC50 [1]: Not Active
Ki [1]: Not Active
IC50 (Insulin receptor): Not Active
IC50 [2]: Not Active
IC50 [3]: Not Active
IC50 (Caspase-1): Not Active
IC50 [4]: Not Active
IC50 [5]: Not Active
IC50 [6]: Not Active
Ki [6]: Not Active

C=CCc1ccc(O)c(OC)c1 [EUGENOL]
IC50 [1]: Not Active
Ki [1]: Not Active
IC50 (Insulin receptor): Not Active
IC50 [2]: Not Active
IC50 [3]: Not Active
IC50 (Caspase-1): Not Active
IC50 [4]: Not Active
IC50 [5]: Not Active
IC50 [6]: Not Active
Ki [6]: Not Active

CC(C(=O)O)c1cccc(Oc2ccccc2)c1 (stereo not given) [FENOPROFEN]
IC50 [1]: Not Active
Ki [1]: Not Active
IC50 (Insulin receptor): Not Active
IC50 [2]: Not Active
IC50 [3]: Not Active
IC50 (Caspase-1): Not Active
IC50 [4]: Not Active
IC50 [5]: Not Active
IC50 [6]: Not Active
Ki [6]: Not Active

CC(C)(C)NC(=O)[C@H]1CC[C@H]2[C@@H]3CC[C@H]4NC(=O)C=C[C@]4(C)[C@H]3CC[C@]12C [FINASTERIDE]
IC50 [1]: Not Active
Ki [1]: Not Active
IC50 (Insulin receptor): Not Active
IC50 [2]: Not Active
IC50 [3]: Not Active
IC50 (Caspase-1): Not Active
IC50 [4]: Not Active
IC50 [5]: Not Active
IC50 [6]: Not Active
Ki [6]: Not Active

COc1ccc2c3c1O[C@H]1C[C@@H](O)C=C[C@@]31CCN(C)C2 [GALANTAMINE]
IC50 [1]: Not Active
Ki [1]: Not Active
IC50 (Insulin receptor): Not Active
IC50 [2]: Not Active
IC50 [3]: Not Active
IC50 (Caspase-1): Not Active
IC50 [4]: Not Active
IC50 [5]: Not Active
IC50 [6]: Not Active
Ki [6]: Not Active
